Like-named read-outs stand apart in the source and are kept apart here.
Experiments:
[1] = tested on: JAK2 pathway: P-STAT5 in TF-1 human erythroleukemia cells + EPO; test: P-STAT5 TF-1+Erythropoietin (EPO) assay; assay type: cell-based; conditions: EPO stimulation, read-out: Cellular JAK2 PSTAT5 TF-l + EPO IC50
Protocol: (§1) TF-1 human erythroleukemia cells (ATCC®; Manassas, Va.; Catalog No. CRL-2003™) were grown in Roswell Park Memorial Institute (RPMI) medium supplemented with 10% heat-inactivated fetal bovine serum (FBS), 2 ng/mL granulocyte-macrophage colony-stimulating factor, 1×non-essential amino acids (NEAA), and 1 mM sodium pyruvate. The day before the assay, the cultures were transferred to Opti-MEM™, 1×NEAA, 1 mM sodium pyruvate, and 0.5% charcoal-stripped FBS (starve medium). Inhibitor stock solutions (5 mM in DMSO) were serially diluted 1:2 in DMSO to generate a 10-point concentration titration (at 500×test concentration), which was further diluted by a 50-fold dilution in Assay Medium (RPMI containing 1×NEAA and 1 mM sodium pyruvate) to generate a 10×concentration titration (in 2% DMSO). The cells (300,000 cells/well in 35 μL of Assay Medium) were seeded in 384-well Greiner plates. Diluted inhibitor at 10×concentration (5 μL) was added to the cells and the plates were incubated for 30 minutes at 37° C. in a humidified incubator. Cells were stimulated with the human recombinant cytokine at the respective EC90 concentrations, as previously determined for each individual lot. For the phosphorylated signal transducer and activator of transcription 6 (P-STAT6) TF-1+Interleukin-13 (IL-13) assay, 10 μL of 250 ng/mL IL-13 (R&D Systems; Minneapolis, Minn.) was added to the cells, which were then incubated for 10 minutes at 37° C. For the P-STAT5 TF-1+Erythropoietin (EPO) assay, 10 μL of 110 IU/mL EPO (Gibco Life Technologies, Catalog No. PHC2054) was added to the cells, which were then incubated for 30 min at 37° C. For both assays, the incubation was followed by addition to the cells of 5 μL of ice-cold 10× cell lysis buffer (Cell Signaling Technologies; Danvers, Mass.; Catalog No. 9803S) containing 1 mM phenylmethylsulfonyl fluoride (PMSF). Assay plates were frozen at −80° C. for a minimum of 1 horn. In the IL-13 assay, P-STAT6 was measured by coating goat anti-rabbit (GAR) plates (Meso Scale Discovery [MSD]; Rockville, Md.; Catalog No. MSD L21RA-1) with rabbit anti-human total STAT6 antibody (Cell Signaling Technologies; Catalog No. 9362S), incubating the cell lysates in the coated plates overnight at 4° C., and then detecting with mouse anti-P-STAT6 (Tyr641) Clone 16E12 antibody (MilliporeSigma; Burlington, Mass.; Catalog No. 05-590, custom labeled by MSD with SULFO-tag) using standard MSD plate processing, washing, and detection protocols. In the EPO assay, P-STAT5 was detected using the phospho-STAT5a,b Whole Cell Lysate Kit (MSD; Catalog No. K150IGD-1). The electrochemiluminescence (ECL) signal of wells was read on the MESO SECTOR S600 (MSD) reader.

[2] = tested on: JAK1: IL-13-stimulated STAT6 phosphorylation in BEAS-2B cells; test: P-STAT6 BEAS-2B+IL-13 Cell Assay; assay type: cell-based, human; conditions: Homo sapiens, BEAS-2B, IL-13 stimulation, read-out: Cellular JAK1 PSTAT6 BEAS2B + IL13 IC50
Summary of the method: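 BEAS-2B cells in BEGM preincubated 1 h at 37 °C with 10-point, 1:2 compound dilutions, then stimulated 15 min with IL-13 (250 ng/mL stock). Lysate pSTAT6 (Tyr641) captured on total-STAT6 antibody and read by MSD electrochemiluminescence; IC50 from four-parameter logistic fit.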

[3] = tested on: JAK1 pathway: P-STAT6 in TF-1 human erythroleukemia cells + IL-13; test: P-STAT6 TF-1+Interleukin-13 (IL-13) assay; assay type: cell-based; conditions: IL-13 stimulation, read-out: Cellular JAK1 PSTAT6 TF-1 + IL13 IC50
Protocol: as §1

Structure (SMILES)	IC50 ([1]; Homo sapiens, TF-1, TF-1 cells) [µM]	IC50 ([3]; Homo sapiens, TF-1, TF-1 cells) [µM]	IC50 ([1]; TF-1 cells) [µM]	IC50 ([3]; TF-1 cells) [µM]	IC50 [2] [µM]
Cn1cc(NC(=O)c2cnn3cccnc23)c(-c2cc(S(=O)(=O)c3cn[nH]c3)ccc2OC(F)F)n1 [Example 41, N-[3-[2-(difluoromethoxy)-5-(1H-pyrazol-4-ylsulfonyl)phenyl]-1-methyl-pyrazol-4-yl]pyrazolo[1,5-a]pyrimidine-3-carboxamide]	0.034	0.015	–	–	0.037
CN(C)CCn1cc(S(=O)(=O)c2ccc(OC(F)F)c(-c3nn(C)cc3NC(=O)c3cnn4cccnc34)c2)cn1 [Example 49, N-[3-[2-(difluoromethoxy)-5-[1-[2-(dimethylamino)ethyl]pyrazol-4-yl]sulfonyl-phenyl]-1-methyl-pyrazol-4-yl]pyrazolo[1,5-a]pyrimidine-3-carboxamide]	0.034	0.02	–	–	0.028
N#CCn1cc(NC(=O)c2cnn3cccnc23)c(-c2cc(S(=O)(=O)C3CC3)ccc2OC(F)F)n1 [Example 45, N-[1-(cyanomethyl)-3-[5-cyclopropylsulfonyl-2-(difluoromethoxy)phenyl]pyrazol-4-yl]pyrazolo[1,5-a]pyrimidine-3-carboxamide]	0.038	0.01	–	–	0.035
Cn1cc(NC(=O)c2cnn3cccnc23)c(-c2cc(S(=O)(=O)CCO)ccc2OC(F)F)n1 [Example 5, N-[3-[2-(difluoromethoxy)-5-(2-hydroxyethylsulfonyl)phenyl]-1-methyl-pyrazol-4-yl]pyrazolo[1,5-a]pyrimidine-3-carboxamide]	0.029	0.016	–	–	0.035
Cn1cc(NC(=O)c2cnn3cccnc23)c(-c2cc(S(=O)(=O)C3CCCNC3)ccc2OC(F)F)n1 (single isomer, unassigned) [Example 37, N-[3-[2-(difluoromethoxy)-5-(3-piperidylsulfonyl)phenyl]-1-methyl-pyrazol-4-yl]pyrazolo[1,5-a]pyrimidine-3-carboxamide]	–	–	0.038	0.051	0.046

Further lines, with some results ahead:

IC50 ([1]; Homo sapiens, TF-1, TF-1 cells) [µM]	IC50 ([3]; Homo sapiens, TF-1, TF-1 cells) [µM]	IC50 ([1]; TF-1 cells) [µM]	IC50 ([3]; TF-1 cells) [µM]	Structure (SMILES)	IC50 [2] [µM]
0.012	0.014	–	–	Cn1cc(NC(=O)c2cnn3cccnc23)c(-c2cc(S(=O)(=O)C3CCC3)ccc2OC(F)F)n1 [Example 2, N-[3-[5-cyclobutylsulfonyl-2-(difluoromethoxy)phenyl]-1-methyl-pyrazol-4-yl]pyrazolo[1,5-a]pyrimidine-3-carboxamide]	0.015
0.0091	0.0087	–	–	COc1cccc(S(=O)(=O)c2ccc(OC(F)F)c(-c3nn(C)cc3NC(=O)c3cnn4cccnc34)c2)c1 [Example 12, N-[3-[2-(difluoromethoxy)-5-(3-methoxyphenyl)sulfonyl-phenyl]-1-methyl-pyrazol-4-yl]pyrazolo[1,5-a]pyrimidine-3-carboxamide]	0.018
0.014	0.0058	–	–	Cn1cc(S(=O)(=O)c2ccc(OC(F)F)c(-c3nn(C)cc3NC(=O)c3cnn4cccnc34)c2)cn1 [Example 35, N-[3-[2-(difluoromethoxy)-5-(1-methylpyrazol-4-yl)sulfonyl-phenyl]-1-methyl-pyrazol-4-yl]pyrazolo[1,5-a]pyrimidine-3-carboxamide]	0.024
0.028	0.013	–	–	C[C@H](Cn1cc(S(=O)(=O)c2ccc(OC(F)F)c(-c3nn(C)cc3NC(=O)c3cnn4cccnc34)c2)cn1)N(C)C [Example 59, N-[3-[2-(difluoromethoxy)-5-[1-[(2R)-2-(dimethylamino)propyl]pyrazol-4-yl]sulfonyl-phenyl]-1-methyl-pyrazol-4-yl]pyrazolo[1,5-a]pyrimidine-3-carboxamide]	0.032
